IC50 data for 38 compounds are collected here from patent publication US12059420B2 (BRISTOL-MYERS SQUIBB COMPANY, priority 2018, dated 2024).

Each structure is given as a SMILES string.

T1 sequence (P14902 whole entry): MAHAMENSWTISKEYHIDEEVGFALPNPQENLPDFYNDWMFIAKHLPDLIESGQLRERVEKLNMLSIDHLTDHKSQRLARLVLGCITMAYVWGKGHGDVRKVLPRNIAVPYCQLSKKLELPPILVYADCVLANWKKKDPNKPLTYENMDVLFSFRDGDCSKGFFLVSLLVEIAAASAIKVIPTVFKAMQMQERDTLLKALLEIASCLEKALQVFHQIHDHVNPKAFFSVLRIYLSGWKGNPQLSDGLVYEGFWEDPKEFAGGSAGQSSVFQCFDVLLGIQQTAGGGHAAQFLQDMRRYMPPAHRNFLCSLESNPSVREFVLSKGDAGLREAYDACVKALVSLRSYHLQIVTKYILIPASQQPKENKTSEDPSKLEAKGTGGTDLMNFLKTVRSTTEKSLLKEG

The experiment addresses T1, human IDO1 (Homo sapiens, UniProt P14902).
T1 construct: expressed in transfected cells
The experiment can be described thus: IDO inhibition assay in HEK293 cells stably expressing human IDO1 (kynurenine production, Ehrlich reagent, absorbance 490 nm). It counts as cell-based. The settings on record: 20 hours incubation with compound, 500 nM reference standard = 100% inhibition, read-out: IDO1 HEK Human IC50. In outline: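 Kynurenine output of stably IDO1-transfected HEK293 cells was measured by absorbance at 490 nm after mixing supernatant with 0.2% Ehrlich reagent, following TCA stop (0.2% final, 50° C., 30 min). Cells were incubated 20 hours with compound. Inhibition was scaled between DMSO and 500 nM reference standard.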
`CC(C)CN(Cc1ccccc1)c1cc(NC(=O)Nc2ccc(Cl)cc2Cl)cc(-c2ccccc2-c2nnn[nH]2)n1` [Example 238, 1-(2-(2-(1H-tetrazol-5-yl)phenyl)-6-(benzyl(isobutyl)amino)pyridin-4-yl)-3-(2,4-dichlorophenyl)urea]: the concentration for half-maximal inhibition (IC50) (in general, the concentration at which inhibition is half-maximal) stood at 26.3 nM.

With `CC(C)CN(Cc1ccccc1)c1cc(NC(=O)Nc2ccc(OC(F)(F)F)cc2)cc(-c2ccccc2-c2nnn[nH]2)n1` [Example 239, 1-(2-(2-(1H-tetrazol-5-yl)phenyl)-6-(benzyl(isobutyl)amino)pyridin-4-yl)-3-(4-(trifluoromethoxy)phenyl)urea], the concentration for half-maximal inhibition (IC50) is 566 nM.

Turning to `Cc1ccc(NC(=O)Nc2cc(-c3ccccc3-c3nnn[nH]3)nc(N(Cc3ccccc3)CC(C)C)c2)cc1` [Example 240, 1-(2-(2-(1H-tetrazol-5-yl)phenyl)-6-(benzyl(isobutyl)amino)pyridin-4-yl)-3-(p-tolyl)urea], the IC50 is 11.9 nM.

On to `CCC(CC(=O)O)c1cc(Nc2ccc(Cl)cc2)cc(N(Cc2ccccc2)C(C)C)n1` (centres unmarked) [Example 241, 3-(6-(benzyl(isopropyl)amino)-4-((4-chlorophenyl)amino)pyridin-2-yl)pentanoic acid], for which the IC50 stood at 21.3 nM.

For `CCC(CC(=O)O)c1cc(Nc2ccc3nc(C)sc3c2)cc(N(Cc2ccccc2)C(C)C)n1` (centres unmarked) [Example 242, 3-(6-(benzyl(isopropyl)amino)-4-((2-methylbenzo[d]thiazol-6-yl)amino)pyridin-2-yl)pentanoic acid], the IC50 amounted to 971 nM.

Take `CC(C)CN(CC(C)C)c1cc(NC(=O)Nc2ccccc2F)cc(-c2cc(F)ccc2C(=O)O)n1` [Example 251, 2-(6-(diisobutylamino)-4-(3-(2-fluorophenyl)ureido)pyridin-2-yl)-4-fluorobenzoic acid]: the IC50 was determined as 2000 nM.

In the case of `CC(C)CN(CC(C)C)c1cc(NC(=O)Nc2ccccc2F)cc(-c2ccccc2C(=O)O)n1` [Example 252, 2-(6-(diisobutylamino)-4-(3-(2-fluorophenyl)ureido)pyridin-2-yl)benzoic acid], the IC50 worked out at 972 nM.

As to `CC(C)CN(CC(C)C)c1cc(NC(=O)Nc2ccccc2F)cc(-c2ccccc2-c2nnn[nH]2)n1` [Example 253, 1-(2-(2-(1H-tetrazol-5-yl)phenyl)-6-(diisobutylamino)pyridin-4-yl)-3-(2-fluorophenyl)urea], the half-maximal inhibitory concentration (IC50) is 972 nM.

As for `Cc1ccc(NC(=O)Nc2cc(-c3ccccc3C(=O)O)nc(N(CC(C)C)CC(C)C)c2)cc1` [Example 254, 2-(6-(diisobutylamino)-4-(3-(p-tolyl)ureido)pyridin-2-yl)benzoic acid], the IC50 amounted to 1080 nM.

In the case of `CCCN(c1cc(NC(=O)Nc2ccc(C)cc2)cc(-c2cc(F)ccc2C(=O)O)n1)C1CCCCC1` [Example 256], the half-inhibitory concentration (IC50) came to 980 nM.

Consider `CCCN(c1cc(NC(=O)Nc2ccc(C)cc2)cc(-c2ccccc2C(=O)O)n1)C1CCCCC1` [Example 257, 2-(6-(cyclohexyl(propyl)amino)-4-(3-(p-tolyl)ureido)pyridin-2-yl)benzoic acid], for which the 50% inhibitory concentration (IC50) turned out to be 1890 nM.

On to `CCCN(c1cc(NC(=O)Nc2ccc(C)cc2)cc(-c2ccccc2-c2nnn[nH]2)n1)C1CCCCC1` [Example 258, 1-(2-(2-(1H-tetrazol-5-yl)phenyl)-6-(cyclohexyl(propyl)amino)pyridin-4-yl)-3-(p-tolyl)urea], for which the half-inhibitory concentration (IC50) came out at 411 nM.

Take `CCCN(Cc1ccccc1)c1cc(NC(=O)Nc2ccc(C)cc2)cc(-c2ccccc2-c2nnn[nH]2)n1` [Example 260, 1-(2-(2-(1H-tetrazol-5-yl)phenyl)-6-(benzyl(propyl)amino)pyridin-4-yl)-3-(p-tolyl)urea]: the half-inhibitory concentration (IC50) amounted to 9.9 nM.

Regarding `CCCN(Cc1ccccc1)c1cc(NC(=O)Nc2ccccc2F)cc(-c2cc(F)ccc2C(=O)O)n1` [Example 261, 2-(6-(benzyl(propyl)amino)-4-(3-(2-fluorophenyl)ureido)pyridin-2-yl)-4-fluorobenzoic acid], the IC50 is 1640 nM.

In the case of `CCCN(Cc1ccccc1)c1cc(NC(=O)Nc2ccccc2F)cc(-c2ccccc2-c2nnn[nH]2)n1` [Example 262, 1-(2-(2-(1H-tetrazol-5-yl)phenyl)-6-(benzyl(propyl)amino)pyridin-4-yl)-3-(2-fluorophenyl)urea], the concentration for half-maximal inhibition (IC50) worked out at 105 nM.

In the case of `CCCN(Cc1ccccc1)c1cc(NC(=O)Nc2cc(C)cc(C)c2)cc(-c2ccccc2-c2nnn[nH]2)n1` [Example 263, 1-(2-(2-(1H-tetrazol-5-yl)phenyl)-6-(benzyl(propyl)amino)pyridin-4-yl)-3-(3,5-dimethylphenyl)urea], the IC50 stood at 145 nM.

As to `CCCCNC(=O)Nc1cc(-c2ccccc2-c2nnn[nH]2)nc(N(CCC)Cc2ccccc2)c1` [Example 264, 1-(2-(2-(1H-tetrazol-5-yl)phenyl)-6-(benzyl(propyl)amino)pyridin-4-yl)-3-butylurea], the IC50 was determined as 1800 nM.

In the case of `CCCN(Cc1ccccc1)c1cc(NC(=O)Nc2ccc(C(F)(F)F)cc2F)cc(-c2ccccc2-c2nnn[nH]2)n1` [Example 265, 1-(2-(2-(1H-tetrazol-5-yl)phenyl)-6-(benzyl(propyl)amino)pyridin-4-yl)-3-(2-fluoro-4-(trifluoromethyl)phenyl)urea], the concentration for half-maximal inhibition (IC50) turned out to be 43.3 nM.

In the case of `CCCN(Cc1ccccc1)c1cc(NC(=O)Nc2cc(C)no2)cc(-c2ccccc2-c2nnn[nH]2)n1` [Example 266, 1-(2-(2-(1H-tetrazol-5-yl)phenyl)-6-(benzyl(propyl)amino)pyridin-4-yl)-3-(3-methylisoxazol-5-yl)urea], the IC50 amounted to 2700 nM.

Consider `CCCN(Cc1ccccc1)c1cc(NC(=O)Nc2ccc(C)nc2)cc(-c2ccccc2-c2nnn[nH]2)n1` [Example 267, 1-(2-(2-(1H-tetrazol-5-yl)phenyl)-6-(benzyl(propyl)amino)pyridin-4-yl)-3-(6-methylpyridin-3-yl)urea], for which the concentration for half-maximal inhibition (IC50) is 1360 nM.

In the case of `CCCN(Cc1ccccc1)c1cc(NC(=O)Nc2ccc(OC(F)(F)F)cc2)cc(-c2ccccc2-c2nnn[nH]2)n1` [Example 268, 1-(2-(2-(1H-tetrazol-5-yl)phenyl)-6-(benzyl(propyl)amino)pyridin-4-yl)-3-(4-(trifluoromethoxy)phenyl)urea], the IC50 came to 30.2 nM.

`CCCN(Cc1ccccc1)c1cc(NC(=O)Nc2ccc(OC(F)F)cc2)cc(-c2ccccc2-c2nnn[nH]2)n1` [Example 271, 1-(2-(2-(1H-tetrazol-5-yl)phenyl)-6-(benzyl(propyl)amino)pyridin-4-yl)-3-(4-(difluoromethoxy)phenyl)urea]: the IC50 worked out at 46.3 nM.

Turning to `O=C(Nc1ccc(OC(F)(F)F)cc1)Nc1cc(-c2ccccc2-c2nnn[nH]2)nc(N(Cc2ccccc2)Cc2ccccc2)c1` [Example 273, 1-(2-(2-(1H-Tetrazol-5-yl)phenyl)-6-(dibenzylamino)pyridin-4-yl)-3-(4-(trifluoromethoxy)-phenyl)urea], the IC50 stood at 609 nM.

As for `CCN(Cc1ccccc1)c1cc(NC(=O)Nc2ccc(C)cc2)cc(-c2ccccc2-c2nnn[nH]2)n1` [Example 274, 1-(2-(2-(1H-Tetrazol-5-yl)phenyl)-6-(benzyl(ethyl)amino)pyridin-4-yl)-3-(p-tolyl)urea], the IC50 is 26.8 nM.

`CCN(Cc1ccccc1)c1cc(NC(=O)Nc2ccc(Cl)cc2F)cc(-c2ccccc2-c2nnn[nH]2)n1` [Example 275]: the concentration for half-maximal inhibition (IC50) stood at 26.6 nM.

In the case of `CCN(Cc1ccccc1)c1cc(NC(=O)Nc2ccc(C(F)(F)F)cc2)cc(-c2ccccc2-c2nnn[nH]2)n1` [Example 276], the IC50 turned out to be 148 nM.

`CCN(Cc1ccccc1)c1cc(NC(=O)Nc2ccc(OC(F)(F)F)cc2)cc(-c2ccccc2-c2nnn[nH]2)n1` [Example 277]: the 50% inhibitory concentration (IC50) was determined as 782 nM.

For `CCN(Cc1ccccc1)c1cc(NC(=O)Nc2ccc3c(c2)OCO3)cc(-c2ccccc2-c2nnn[nH]2)n1` [Example 278], the IC50 is 478 nM.

Turning to `CCOc1ccc(NC(=O)Nc2cc(-c3ccccc3-c3nnn[nH]3)nc(N(CC)Cc3ccccc3)c2)cc1` [Example 279], the IC50 was 537 nM.

Turning to `CCN(Cc1ccccc1)c1cc(NC(=O)Nc2ccc(OC(F)F)cc2)cc(-c2ccccc2-c2nnn[nH]2)n1` [Example 280], the IC50 came out at 554 nM.

For the compound `CCN(Cc1ccccc1)c1cc(NC(=O)Nc2ccc(Cl)cc2Cl)cc(-c2ccccc2-c2nnn[nH]2)n1` [Example 281], the 50% inhibitory concentration (IC50) came to 13.7 nM.

Take `CCN(Cc1ccccc1)c1cc(NC(=O)Cc2ccc(C#N)cc2)cc(-c2ccccc2-c2nnn[nH]2)n1` [Example 282, N-(2-(2-(1H-Tetrazol-5-yl)phenyl)-6-(benzyl(ethyl)amino)pyridin-4-yl)-2-(4-cyanophenyl)acetamide]: the half-maximal inhibitory concentration (IC50) came to 1580 nM.

On to `CCN(Cc1ccccc1)c1cc(NC(=O)Cc2cc(C)no2)cc(-c2ccccc2-c2nnn[nH]2)n1` [Example 283], for which the IC50 is 1150 nM.

For `CCN(Cc1ccccc1)c1cc(NC(=O)Cc2cccnc2)cc(-c2ccccc2-c2nnn[nH]2)n1` [Example 284], the IC50 amounted to 1620 nM.

Consider `CCN(Cc1ccccc1)c1cc(NC(=O)Cc2ccc(C)nc2)cc(-c2ccccc2-c2nnn[nH]2)n1` [Example 285], for which the IC50 was determined as 2330 nM.

Turning to `Cc1ccc(NC(=O)Nc2cc(-c3ccccc3-c3nnn[nH]3)nc(N(CC(C)C)C3CCCCC3)c2)cc1` [Example 286, 1-(2-(2-(1H-Tetrazol-5-yl)phenyl)-6-(cyclohexyl(isobutyl)amino)pyridin-4-yl)-3-(p-tolyl)urea], the half-inhibitory concentration (IC50) was 365 nM.

For the compound `CC(C)CN(c1cc(NC(=O)Nc2ccc(F)cc2F)cc(-c2ccccc2-c2nnn[nH]2)n1)C1CCCCC1` [Example 287, 1-(2-(2-(1H-Tetrazol-5-yl)phenyl)-6-(cyclohexyl(isobutyl)amino)pyridin-4-yl)-3-(2,4-difluorophenyl)urea], the IC50 came to 5990 nM.

Consider `CCCN(Cc1ccccc1)c1cc(NC(=O)Nc2ccc3c(c2)OCO3)cc(-c2ccccc2-c2nnn[nH]2)n1` [Example 288, 1-(2-(2-(1H-Tetrazol-5-yl)phenyl)-6-(benzyl(propyl)amino)pyridin-4-yl)-3-(benzo[d][1,3]dioxol-5-yl)urea], for which the IC50 worked out at 155 nM.
